ChEMBL document CHEMBL3351802, “Rupestonic acids B-G, NO inhibitory sesquiterpenoids from Artemisia rupestris” (Bioorg Med Chem Lett, 2014)

Key:
[1] = Cytotoxicity against LPS-stimulated […] cells assessed as cell viability at 40 uM by MTT assay; format: cell-based, BV-2; settings: read-out: Activity
BV-2 = test: Inhibition of LPS-stimulated NO production in […] cells after 24 hrs by Griess assay; format: functional, cell-based; settings: Mus musculus, BV-2, 24 h

C=C(C(=O)O)[C@@H]1CC[C@H](C)[C@@]2(O)CC(=O)C(C)=C2C1
viability at 40 µM [1]: 83.4%
IC50 (BV-2): 28.9 µM

C=C(C(=O)O)[C@@H]1CC[C@H](C)[C@@H]2CC[C@](C)(O)[C@@]2(O)C1
viability at 40 µM [1]: 78.8%
IC50 (BV-2): 2.6 µM

CC1=C2C[C@H](C(=O)O)CC[C@H](C)[C@@H]2CC1=O
viability at 40 µM [1]: 77.6%
IC50 (BV-2): 8.9 µM

C=C(C(=O)O)[C@@H]1CC[C@H](C)C2=C(C1)[C@](C)(O)CC2=O
viability at 40 µM [1]: 77%
IC50 (BV-2): 24.7 µM

C=C(C(=O)O)[C@@H]1CC[C@H](C)[C@H]2C(=O)C=C(C)[C@]2(O)C1
viability at 40 µM [1]: 76.1%
IC50 (BV-2): 20.4 µM

C=C(C(=O)O)[C@@H]1CC[C@H](C)[C@H](CCC(C)=O)C(=O)C1
viability at 40 µM [1]: 76.6%
IC50 (BV-2): 2.2 µM

O=c1c(O)c(-c2ccc(O)c(O)c2)oc2cc(O)cc(O)c12 [QUERCETIN]
viability at 40 µM [1]: 97%
IC50 (BV-2): 4.3 µM
